# Results published in US9006250B2, “4-amino-6-(heterocyclic)picolinates and 6-amino-2-(heterocyclic)pyrimidine-4-carboxylates and their use as herbicides” (Dow AgroSciences, LLC, priority 2013, dated 2015).
# How the values were obtained:
# Test in all cases: Post-Emergent Test II herbicidal activity
# Format in all cases: in vivo
# [1] = test system: ABUTH: velvetleaf (Abutilon theophrasti); conditions: post-emergence, 336 h, 14 days, read-out: Visual Growth Reduction (%) 14 Days After Application ABUTH; for pest or weed control at 35 g/ha: 35 g ai/ha; for pest or weed control at 70 g/ha: 70 g ai/ha; for pest or weed control at 140 g/ha: 140 g ai/ha
# Experimental: (§1) Post-Emergent Test II: Seeds or nutlets of the desired test plant species were planted in Sun Gro Metro-Mix® 360 planting mixture, which typically has a pH of 6.0 to 6.8 and an organic matter content of about 30 percent, in plastic pots with a surface area of 64 square centimeters. When required to ensure good germination and healthy plants, a fungicide treatment and/or other chemical or physical treatment was applied. The plants were grown for 7-21 d in a greenhouse with an approximate 15 h photoperiod which was maintained at about 23-29° C. during the day and 22-28° C. during the night. Nutrients and water were added on a regular basis and supplemental lighting was provided with overhead metal halide 1000-Watt lamps as necessary. The plants were employed for testing when they reached the first or second true leaf stage.
# (§2) A weighed amount, determined by the highest rate to be tested, of each test compound was placed in a 25 mL glass vial and was dissolved in 4 mL of a 97:3 v/v mixture of acetone and DMSO to obtain concentrated stock solutions. […] The concentrated stock solutions obtained were diluted with 20 mL of an aqueous mixture containing acetone, water, isopropyl alcohol, DMSO, Atplus 411F crop oil concentrate, and Triton® X-155 surfactant in a 48.5:39:10:1.5:1.0:0.02 v/v ratio to obtain spray solutions containing the highest application rates. Additional application rates were obtained by serial dilution of 12 mL of the high rate solution into a solution containing 2 mL of 97:3 v/v mixture of acetone and DMSO and 10 mL of an aqueous mixture containing acetone, water, isopropyl alcohol, DMSO, Atplus 411F crop oil concentrate, and Triton X®-155 surfactant in a 48.5:39:10:1.5:1.0:0.02 v/v ratio to obtain ½×, ¼×, ⅛× and 1/16× rates of the high rate. Compound requirements are based upon a 12 mL application volume at a rate of 187 liters per hectare (L/ha). Formulated compounds were applied to the plant material with an overhead Mandel track sprayer equipped with 8002E nozzles calibrated to deliver 187 L/ha over an application area of 0.503 square meters at a spray height of 18 inches […] above the average plant canopy height. Control plants were sprayed in the same manner with the solvent blank.
# (§3) The treated plants and control plants were placed in a greenhouse as described above and watered by subirrigation to prevent wash-off of the test compounds. After 14 d, the condition of the test plants as compared with that of the untreated plants was determined visually and scored on a scale of 0 to 100 percent where 0 corresponds to no injury and 100 corresponds to complete kill.
# [2] = test system: AMARE: redroot pigweed (Amaranthus retroflexus); conditions: post-emergence, 336 h, 14 days, read-out: Visual Growth Reduction (%) 14 Days After Application AMARE
# Experimental: as §1, §2, §3
# [3] = test system: BRSNN: oilseed rape, canola (Brassica napus); conditions: post-emergence, 336 h, 14 days, read-out: Visual Growth Reduction (%) 14 Days After Application BRSNN; for pest or weed control at 35 g/ha: 35 g ai/ha; for pest or weed control at 70 g/ha: 70 g ai/ha; for pest or weed control at 140 g/ha: 140 g ai/ha
# Experimental: as §1, §2, §3
# [4] = test system: CHEAL: lambsquarters (Chenopodium album); conditions: post-emergence, 336 h, 14 days, read-out: Visual Growth Reduction (%) 14 Days After Application CHEAL; for pest or weed control at 35 g/ha: 35 g ai/ha; for pest or weed control at 70 g/ha: 70 g ai/ha; for pest or weed control at 140 g/ha: 140 g ai/ha
# Experimental: as §1, §2, §3
# [5] = test system: CYPES: yellow nutsedge (Cyperus esculentus); conditions: post-emergence, 336 h, 14 days, read-out: Visual Growth Reduction (%) 14 Days After Application CYPES; for pest or weed control at 35 g/ha: 35 g ai/ha; for pest or weed control at 70 g/ha: 70 g ai/ha; for pest or weed control at 140 g/ha: 140 g ai/ha
# Experimental: as §1, §2, §3
# [6] = test system: ECHCG: barnyardgrass (Echinochloa crus-galli); conditions: post-emergence, 336 h, 14 days, read-out: Visual Growth Reduction (%) 14 Days After Application ECHCG; for pest or weed control at 35 g/ha: 35 g ai/ha; for pest or weed control at 70 g/ha: 70 g ai/ha; for pest or weed control at 140 g/ha: 140 g ai/ha
# Experimental: as §1, §2, §3
# [7] = test system: EPHHL: wild poinsettia (Euphorbia heterophylla); conditions: post-emergence, 336 h, 14 days, read-out: Visual Growth Reduction (%) 14 Days After Application EPHHL; for pest or weed control at 35 g/ha: 35 g ai/ha; for pest or weed control at 70 g/ha: 70 g ai/ha; for pest or weed control at 140 g/ha: 140 g ai/ha
# Experimental: as §1, §2, §3
# [8] = test system: HELAN: sunflower (Helianthus annuus); conditions: post-emergence, 336 h, 14 days, read-out: Visual Growth Reduction (%) 14 Days After Application HELAN; for pest or weed control at 35 g/ha: 35 g ai/ha; for pest or weed control at 70 g/ha: 70 g ai/ha; for pest or weed control at 140 g/ha: 140 g ai/ha
# Experimental: as §1, §2, §3
# [9] = test system: ORYSA: rice (Oryza sativa); conditions: post-emergence, 336 h, 14 days, read-out: Visual Growth Reduction (%) 14 Days After Application ORYSA; for pest or weed control at 35 g/ha: 35 g ai/ha; for pest or weed control at 70 g/ha: 70 g ai/ha; for pest or weed control at 140 g/ha: 140 g ai/ha
# Experimental: as §1, §2, §3
# [10] = test system: TRZAS: wheat, spring (Triticum aestivum); conditions: post-emergence, 336 h, 14 days, read-out: Visual Growth Reduction (%) 14 Days After Application TRZAS; for pest or weed control at 35 g/ha: 35 g ai/ha; for pest or weed control at 70 g/ha: 70 g ai/ha; for pest or weed control at 140 g/ha: 140 g ai/ha
# Experimental: as §1, §2, §3
# [11] = test system: ZEAMX: maize, corn (Zea mays); conditions: post-emergence, 336 h, 14 days, read-out: Visual Growth Reduction (%) 14 Days After Application ZEAMX; for pest or weed control at 35 g/ha: 35 g ai/ha; for pest or weed control at 70 g/ha: 70 g ai/ha; for pest or weed control at 140 g/ha: 140 g ai/ha
# Experimental: as §1, §2, §3
# [12] = test system: SETFA: giant foxtail (Setaria faberi); conditions: post-emergence, 336 h, 14 days, read-out: Visual Growth Reduction (%) 14 Days After Application SETFA
# Experimental: as §1, §2, §3
Compound,pest or weed control at 35 g/ha [1] [%],pest or weed control at 70 g/ha [1] [%],pest or weed control at 140 g/ha [1] [%],pest or weed control at 35 g/ha [3] [%],pest or weed control at 70 g/ha [3] [%],pest or weed control at 140 g/ha [3] [%],pest or weed control at 35 g/ha [4] [%],pest or weed control at 70 g/ha [4] [%],pest or weed control at 140 g/ha [4] [%],pest or weed control at 35 g/ha [5] [%],pest or weed control at 70 g/ha [5] [%],pest or weed control at 140 g/ha [5] [%],pest or weed control at 35 g/ha [6] [%],pest or weed control at 70 g/ha [6] [%],pest or weed control at 140 g/ha [6] [%],pest or weed control at 35 g/ha [7] [%],pest or weed control at 70 g/ha [7] [%],pest or weed control at 140 g/ha [7] [%],pest or weed control at 35 g/ha [8] [%],pest or weed control at 70 g/ha [8] [%],further results
"Nc1c(F)c(-c2ccc3nonc3c2)nc(C(=O)O)c1Cl [Compound 2, 4-Amino-6-(benzo[c][1,2,5]oxadiazol-5-yl)-3-chloro-5-fluoropicolinic acid]",75 to 84,75 to 84,85 to 94,60 to 74,75 to 84,75 to 84,95 to 100,95 to 100,95 to 100,0 to 29,0 to 29,0 to 29,60 to 74,75 to 84,75 to 84,60 to 74,60 to 74,60 to 74,85 to 94,85 to 94,pest or weed control at 35 g/ha ([2]; 35 g ai/ha): 95 to 100%; pest or weed control at 70 g/ha ([2]; 70 g ai/ha): 95 to 100%; pest or weed control at 140 g/ha ([2]; 140 g ai/ha): 95 to 100%; pest or weed control at 140 g/ha [8]: 95 to 100%; pest or weed control at 35 g/ha [9]: 0 to 29%; pest or weed control at 70 g/ha [9]: 0 to 29%; pest or weed control at 140 g/ha [9]: 0 to 29%; pest or weed control at 35 g/ha [10]: 60 to 74%; pest or weed control at 70 g/ha [10]: 60 to 74%; pest or weed control at 140 g/ha [10]: 60 to 74%; pest or weed control at 35 g/ha [11]: 60 to 74%; pest or weed control at 70 g/ha [11]: 60 to 74%; pest or weed control at 140 g/ha [11]: 60 to 74%
"COc1cc2nonc2cc1-c1cc(N)c(Cl)c(C(=O)O)n1 [Compound 5, 4-Amino-3-chloro-6-(6-methoxybenzo[c][1,2,5]oxadiazol-5-yl)picolinic acid]",0 to 29,0 to 29,0 to 29,0 to 29,0 to 29,0 to 29,0 to 29,0 to 29,0 to 29,0 to 29,0 to 29,0 to 29,0 to 29,0 to 29,0 to 29,0 to 29,0 to 29,0 to 29,0 to 29,0 to 29,pest or weed control at 140 g/ha [8]: 0 to 29%; pest or weed control at 35 g/ha [9]: 0 to 29%; pest or weed control at 70 g/ha [9]: 0 to 29%; pest or weed control at 140 g/ha [9]: 0 to 29%; pest or weed control at 35 g/ha ([12]; 35 g ai/ha): 0 to 29%; pest or weed control at 70 g/ha ([12]; 70 g ai/ha): 0 to 29%; pest or weed control at 140 g/ha ([12]; 140 g ai/ha): 0 to 29%; pest or weed control at 35 g/ha [10]: 0 to 29%; pest or weed control at 70 g/ha [10]: 0 to 29%; pest or weed control at 140 g/ha [10]: 0 to 29%; pest or weed control at 35 g/ha [11]: 0 to 29%; pest or weed control at 70 g/ha [11]: 0 to 29%; pest or weed control at 140 g/ha [11]: 0 to 29%
